Test results published in patent publication US20250049800A1, “VCP/p97 INHIBITOR FOR THE TREATMENT OF CANCER” (CASI Pharmaceuticals, Inc., priority 2021, published 2025).
Several values for one entry are separate records, joined by “and”; a condition that tells them apart may be missing. Equal entries are not always repeated.

Columns and labels:
[1] = Phase I study: plasma pharmacokinetics of orally administered Compound 1; type: in vivo, human; details: for AUC(0-inf) / AUC(0-t) / Cmax / half-life / Tmax: human, plasma, oral
Text: The study was designed as a multicenter, open-label Phase 1 study of orally administered Compound 1 in participants with R/R AML or participants with R/R intermediate- to high-risk MDS. […] Additional cohorts for participants with R/R intermediate- to high-risk MDS following hypomethylating agents or other AML cohorts may be added at a later time.
Similar dosing may be used in the dose expansion part of the study. […] Additional intensive PK testing is collected for any participants undergoing intra-patient dose escalation.
At the conclusion of the 900 mg QD cohort, subjects were enrolled in cohorts for BID dosing, starting with the 300 mg BID dosing.
Subjects were treated with Compound 1 QD as described in Example 2.
Subjects were treated with Compound 1 QD or BID dosing as described in Example 2 and blood samples were taken from subjects and analyzed as described in Example 3. Tables 16 and 17 show pharmacokinetic analyses for QD dosing for 100 mg, 175 mg, 275 mg, 350 mg, 400 mg and 900 mg cohorts and BID dosing for 300 mg and 350 mg cohorts. Abbreviations in Table 16 and Table 17: AR=Day 4 AUC0-24/Day 1 AUC0-24, NR=not reported; NA=not available. […] FIG. 9 and FIG. 10 show AUC for day 1 and day 4 of dosing with doses between 350-900 mg QD compared with 350 mg BID.

[2] = system: Capan-1 (Pancreas); experiment: Cell Titer-Glo viability: single agent IC50 and Compound 1 + PARP inhibitor matrix (Bliss); type: cell-based; details: Homo sapiens, 72 h, single agent, read-out: Absolute IC50
Procedure: (§1) The PARP inhibitors used for the study were talazoparib, olaparib and niraparib. […] was used as a reference control. […] For each drug agent on its own, IC50 values in each cell line were determined. Interactions of the combinations of Compound 1 and each PARP inhibitor was assessed as follows: […] Cisplatin and culture media were used as positive and negative control, respectively. The combination activities were assessed using CrownSyn software to determine synergy scores by Bliss Independence and Loewe additivity methods. […] Synergy scores calculated by both Bliss independence model and Loewe additivity model (see Greco, […]., Poch, G., Suhnel, J., Kundi, M., & Bodeker, W. (1992). Consensus on concepts and terminology for combined-action assessment: the […] agreement. […] Without being bound by theory, the Bliss independence model is often applied to asses synergy for non-interacting drugs that elicit their responses independently, e.g., by targeting separate pathways, whereas the Loewe additivity model may be more compatible where both drugs have similar modes of action on the same targets or pathways.

[3] = system: HCC1395 (Breast); experiment: as above; type: cell-based; details: Homo sapiens, 72 h, single agent, read-out: Absolute IC50
Procedure: as §1

[4] = system: IGR-OV1 (Ovary); experiment: as above; type: cell-based; details: Homo sapiens, IGROV-1, 72 h, single agent, read-out: Absolute IC50
Procedure: as §1

[5] = system: MX-1 (Breast); experiment: as above; type: cell-based; details: single agent, read-out: Absolute IC50
Procedure: as §1

[6] = 300 mg, 300 mg BID, Day 1, 1 subject
[7] = 300 mg, 300 mg BID, Day 4, 1 subject
[8] = 350 mg, 350 mg BID, Day 1, Mean
[9] = 350 mg, 350 mg BID, Day 4, Mean

## Cc1cc2c(C(N)=O)cccc2n1-c1nc2c(c(NCc3ccccc3)n1)CCCN2 [Compound 1, 1-(4-(benzylamino)-5,6,7,8-tetrahydropyrido[2,3-d]pyrimidin-2-yl)-2-methyl-1H-indole-4-carboxamide]
[1]; 25 mg to 450 mg QD
  exposure level increases between the doses: generally proportional and linear
[1]; 100 mg QD, Day 1, Mean
  Cmax/Dose: 0.00372 µM/mg
[1]; 350 mg BID vs 600, 750 and 900 mg QD, Day 1
  exposure of BID dosing compared with QD dosing: higher level of exposure
[1]; 450 mg QD, Day 1, Mean
  Cmax/Dose: 0.00481 µM/mg
[1]; 450 mg QD, Day 4, Mean
  AUC0-inf/Dose: 0.0853 µM·h/mg
  AUC(0-t): 35.2 µM·h
[1]; Cohort 1 (25 mg QD), Day 4
  AR: 0.914
[1]; Compound 1 25 mg QD vs CB-5083 40 mg QD
  plasma exposure compared with CB-5083: significantly higher plasma exposure
[1]; between days 1 and 4
  accumulation: No accumulation
[1]; human subjects
  plasma exposure compared with CB-5083: significantly higher plasma exposure than CB-5083
[1]; 100 mg, 100 mg QD, Day 1, Mean
  AUC(0-inf): 1780 ng·h/mL and 4.31 µM·h
  AUC(0-t): 1420 ng·h/mL and 3.43 µM·h
  Cmax: 154 ng/mL and 372 nM
  half-life: 6.87 h
[1]; 100 mg, 100 mg QD, Day 4, Mean
  AUC(0-inf): 3020 ng·h/mL and 7.32 µM·h
  AUC(0-t): 2750 ng·h/mL and 6.66 µM·h
  Cmax: 356 ng/mL and 861 nM
  Tmax: 2.67 h
  half-life: 7.84 h
[1]; 175 mg, 175 mg QD, Day 1, Mean
  AUC(0-inf): 5260 ng·h/mL and 12.7 µM·h
  AUC(0-t): 4380 ng·h/mL and 10.6 µM·h
  Cmax: 636 ng/mL
  Tmax: 3.33 h
  half-life: 11.4 h
[1]; 175 mg, 175 mg QD, Day 4, Mean
  AUC(0-inf): 2950 ng·h/mL and 7.13 µM·h
  AUC(0-t): 8760 ng·h/mL and 21.2 µM·h
  Cmax: 490 ng/mL and 1.19 µM
  Tmax: 13.5 h
  half-life: 6.01 h
[1]; 275 mg, 275 mg QD, Day 1, Mean
  AUC(0-inf): 4660 ng·h/mL and 11.3 µM·h
  AUC(0-t): 4140 ng·h/mL and 10 µM·h
  Cmax: 679 ng/mL and 1.65 µM
  Tmax: 2.57 h
  half-life: 5.08 h
[1]; 275 mg, 275 mg QD, Day 4, Mean
  AUC(0-inf): 9660 ng·h/mL and 23.4 µM·h
  AUC(0-t): 9230 ng·h/mL and 22.4 µM·h
  Cmax: 827 ng/mL and 2 µM
  Tmax: 3.6 h
  half-life: 8.9 h
[1]; [6]
  AUC(0-t): 12200 ng·h/mL and 29.6 µM·h
  Cmax: 965 ng/mL and 2.34 µM
  Tmax: 12 h
[1]; [7]
  AUC(0-inf): 27700 ng·h/mL and 67 µM·h
  AUC(0-t): 27400 ng·h/mL and 66.4 µM·h
  Cmax: 1920 ng/mL and 4.65 µM
  Tmax: 3 h
[1]; [8]
  AUC(0-inf): 29600 ng·h/mL and 71.8 µM·h
  AUC(0-t): 14600 ng·h/mL and 35.3 µM·h
  Cmax: 1340 ng/mL and 3.25 µM
  Tmax: 7.63 h
[1]; [9]
  AUC(0-inf): 31800 ng·h/mL and 77 µM·h
  AUC(0-t): 23400 ng·h/mL and 56.7 µM·h
  Cmax: 2020 ng/mL and 4.89 µM
  Tmax: 3.25 h
[1]; 350 mg, 350 mg QD, Day 1, Mean
  AUC(0-inf): 5330 ng·h/mL and 12.9 µM·h
  AUC(0-t): 5200 ng·h/mL and 12.6 µM·h
  Cmax: 746 ng/mL and 1.81 µM
  Tmax: 3.2 h
  half-life: 4.48 h
[1]; 350 mg, 350 mg QD, Day 4, Mean
  AUC(0-inf): 8570 ng·h/mL and 20.8 µM·h
  AUC(0-t): 8440 ng·h/mL and 20.4 µM·h
  Cmax: 834 ng/mL and 2.02 µM
  Tmax: 4 h
  half-life: 7.55 h
[1]; 450 mg, 450 mg QD, Day 1, Mean
  AUC(0-inf): 8860 ng·h/mL and 21.5 µM·h
  AUC(0-t): 8340 ng·h/mL and 20.2 µM·h
  Cmax: 895 ng/mL and 2.17 µM
  Tmax: 3 h
  half-life: 6.05 h
[1]; 450 mg, 450 mg QD, Day 4, Mean
  AUC(0-inf): 15900 ng·h/mL and 38.4 µM·h
  AUC(0-t): 14500 ng·h/mL
  Cmax: 1350 ng/mL and 3.28 µM
  Tmax: 4 h
  half-life: 9.62 h
[1]; 600 mg, 600 mg QD, Day 1, Mean
  AUC(0-inf): 6500 ng·h/mL and 15.7 µM·h
  AUC(0-t): 5710 ng·h/mL and 13.8 µM·h
  Cmax: 799 ng/mL and 1.93 µM
  Tmax: 3.6 h
  half-life: 5.94 h
[1]; 600 mg, 600 mg QD, Day 4, Mean
  AUC(0-inf): 18200 ng·h/mL and 44 µM·h
  AUC(0-t): 17200 ng·h/mL and 41.7 µM·h
  Cmax: 1960 ng/mL and 4.75 µM
  Tmax: 3.4 h
  half-life: 9.77 h
[1]; 750 mg, 750 mg QD, Day 1, Mean
  AUC(0-inf): 6160 ng·h/mL and 14.9 µM·h
  AUC(0-t): 5960 ng·h/mL and 14.4 µM·h
  Cmax: 796 ng/mL and 1.93 µM
  Tmax: 3.33 h
  half-life: 4.49 h
[1]; 750 mg, 750 mg QD, Day 4, Mean
  AUC(0-inf): 13200 ng·h/mL and 32.1 µM·h
  AUC(0-t): 12900 ng·h/mL and 31.3 µM·h
  Cmax: 2260 ng/mL and 5.48 µM
  Tmax: 2.5 h
  half-life: 6.67 h
[1]; 900 mg, 900 mg QD, Day 1, Mean
  AUC(0-inf): 14000 ng·h/mL and 33.9 µM·h
  AUC(0-t): 12300 ng·h/mL and 29.8 µM·h
  Cmax: 1550 ng/mL and 3.76 µM
  Tmax: 2.5 h
  half-life: 5.71 h
[1]; 900 mg, 900 mg QD, Day 4, Mean
  AUC(0-inf): 27000 ng·h/mL and 65.3 µM·h
  AUC(0-t): 26700 ng·h/mL and 64.6 µM·h
  Cmax: 3220 ng/mL and 7.8 µM
  Tmax: 3.33 h
  half-life: 6.47 h
[1]; 175 mg QD, Day 1, Mean
  Cmax: 1540 nM
[1]; vs CB-5083 at greater than 200 mg, FIG. 4
  exposures compared with CB-5083: greater than dosing CB-5083 at greater than 200 mg
[2]
  IC50: 405 nM
[3]
  IC50: 201 nM
[4]
  IC50: 279 nM
[5]
  IC50: 409 nM
